Data as given in patent publication US11020399B2, “Intermediates useful in the synthesis of compounds as modulators of protein kinases” (Rhizen Pharmaceuticals SA, priority 2011, dated 2021).

Experiments:
PI3kβ = PI3kβ (Homo sapiens, UniProt P42338); experiment: Fluorescent (HTRF) determination of PI3 kinase enzyme activity, PI3Kβ; assay type: biochemical; details: 1 uM
Method in brief: (§1)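 Compounds tested at 1 μM on α and β isoforms and at 0.3 or 0.1 μM on γ and δ, with percent inhibition from blank and enzyme controls, plus IC50 fits. Room-temperature reaction: 10 min enzyme–compound preincubation in MgCl2/DTT buffer with 1.38 μM PIP2, then 30 min after 400 μM ATP addition; PIP3 read by HTRF (665/620 nm).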

PI3kγ = PI3kγ (Homo sapiens, UniProt P48736); experiment: Fluorescent (HTRF) determination of PI3 kinase enzyme activity, PI3Kγ; assay type: biochemical; details: 100 nM (Examples 60-137)
Method in brief: as §1

PI3kδ = PI3kδ (Homo sapiens, UniProt O00329); experiment: Fluorescent (HTRF) determination of PI3 kinase enzyme activity, PI3Kδ; assay type: biochemical; details: 100 nM (Examples 60-137)
Method in brief: as §1

PI3kα = PI3kα (Homo sapiens, UniProt P42336); experiment: Fluorescent (HTRF) determination of PI3 kinase enzyme activity, PI3Kα; assay type: biochemical; details: 1 uM
Method in brief: as §1

PI3kβ, sequence (P42338 whole entry, canonical isoform): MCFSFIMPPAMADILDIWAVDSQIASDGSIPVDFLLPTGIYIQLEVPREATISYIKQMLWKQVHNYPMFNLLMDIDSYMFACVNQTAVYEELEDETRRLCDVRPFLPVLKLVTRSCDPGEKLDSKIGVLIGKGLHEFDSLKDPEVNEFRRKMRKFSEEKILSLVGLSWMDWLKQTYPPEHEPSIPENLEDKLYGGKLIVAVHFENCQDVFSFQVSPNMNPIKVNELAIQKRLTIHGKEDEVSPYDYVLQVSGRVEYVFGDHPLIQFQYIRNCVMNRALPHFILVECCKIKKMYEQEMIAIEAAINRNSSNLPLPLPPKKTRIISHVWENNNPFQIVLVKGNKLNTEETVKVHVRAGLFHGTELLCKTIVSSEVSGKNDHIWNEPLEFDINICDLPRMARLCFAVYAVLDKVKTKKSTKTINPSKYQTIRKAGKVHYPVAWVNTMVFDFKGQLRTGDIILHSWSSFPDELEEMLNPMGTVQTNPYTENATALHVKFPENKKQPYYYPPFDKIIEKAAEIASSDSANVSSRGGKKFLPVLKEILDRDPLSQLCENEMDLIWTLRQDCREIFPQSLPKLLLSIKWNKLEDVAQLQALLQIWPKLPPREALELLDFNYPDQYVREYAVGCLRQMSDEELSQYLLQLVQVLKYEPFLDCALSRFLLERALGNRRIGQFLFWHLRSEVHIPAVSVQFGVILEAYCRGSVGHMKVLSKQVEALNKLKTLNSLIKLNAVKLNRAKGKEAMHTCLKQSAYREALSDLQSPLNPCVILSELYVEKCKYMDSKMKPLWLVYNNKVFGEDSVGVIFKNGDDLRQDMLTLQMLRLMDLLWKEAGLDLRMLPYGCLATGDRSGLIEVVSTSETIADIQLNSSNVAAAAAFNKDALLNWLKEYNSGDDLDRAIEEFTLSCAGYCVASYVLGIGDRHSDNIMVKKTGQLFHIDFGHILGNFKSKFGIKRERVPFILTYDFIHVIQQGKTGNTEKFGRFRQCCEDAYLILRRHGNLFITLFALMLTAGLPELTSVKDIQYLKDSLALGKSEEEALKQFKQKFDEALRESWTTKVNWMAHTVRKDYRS
PI3kβ, sequence (P27986 whole entry partner, canonical isoform): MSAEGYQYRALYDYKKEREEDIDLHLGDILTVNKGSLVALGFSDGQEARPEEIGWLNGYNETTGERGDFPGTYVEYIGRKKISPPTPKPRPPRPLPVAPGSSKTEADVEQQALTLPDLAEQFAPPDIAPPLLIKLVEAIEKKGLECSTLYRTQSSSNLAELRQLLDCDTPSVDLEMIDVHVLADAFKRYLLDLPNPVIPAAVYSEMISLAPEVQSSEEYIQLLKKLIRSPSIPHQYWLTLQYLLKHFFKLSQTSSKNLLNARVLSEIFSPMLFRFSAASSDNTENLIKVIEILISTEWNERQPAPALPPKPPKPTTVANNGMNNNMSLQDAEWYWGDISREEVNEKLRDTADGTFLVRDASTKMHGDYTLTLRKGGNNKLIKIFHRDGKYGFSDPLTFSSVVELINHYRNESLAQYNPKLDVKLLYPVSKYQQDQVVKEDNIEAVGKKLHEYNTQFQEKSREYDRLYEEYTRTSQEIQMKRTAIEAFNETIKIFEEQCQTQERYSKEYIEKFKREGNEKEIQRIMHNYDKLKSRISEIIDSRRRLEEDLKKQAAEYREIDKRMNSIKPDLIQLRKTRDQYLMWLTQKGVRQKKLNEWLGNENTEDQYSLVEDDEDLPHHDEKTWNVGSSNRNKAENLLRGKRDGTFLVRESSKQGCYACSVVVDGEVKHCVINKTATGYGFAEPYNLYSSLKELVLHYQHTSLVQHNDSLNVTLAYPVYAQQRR
PI3kα, sequence (P42336 whole entry): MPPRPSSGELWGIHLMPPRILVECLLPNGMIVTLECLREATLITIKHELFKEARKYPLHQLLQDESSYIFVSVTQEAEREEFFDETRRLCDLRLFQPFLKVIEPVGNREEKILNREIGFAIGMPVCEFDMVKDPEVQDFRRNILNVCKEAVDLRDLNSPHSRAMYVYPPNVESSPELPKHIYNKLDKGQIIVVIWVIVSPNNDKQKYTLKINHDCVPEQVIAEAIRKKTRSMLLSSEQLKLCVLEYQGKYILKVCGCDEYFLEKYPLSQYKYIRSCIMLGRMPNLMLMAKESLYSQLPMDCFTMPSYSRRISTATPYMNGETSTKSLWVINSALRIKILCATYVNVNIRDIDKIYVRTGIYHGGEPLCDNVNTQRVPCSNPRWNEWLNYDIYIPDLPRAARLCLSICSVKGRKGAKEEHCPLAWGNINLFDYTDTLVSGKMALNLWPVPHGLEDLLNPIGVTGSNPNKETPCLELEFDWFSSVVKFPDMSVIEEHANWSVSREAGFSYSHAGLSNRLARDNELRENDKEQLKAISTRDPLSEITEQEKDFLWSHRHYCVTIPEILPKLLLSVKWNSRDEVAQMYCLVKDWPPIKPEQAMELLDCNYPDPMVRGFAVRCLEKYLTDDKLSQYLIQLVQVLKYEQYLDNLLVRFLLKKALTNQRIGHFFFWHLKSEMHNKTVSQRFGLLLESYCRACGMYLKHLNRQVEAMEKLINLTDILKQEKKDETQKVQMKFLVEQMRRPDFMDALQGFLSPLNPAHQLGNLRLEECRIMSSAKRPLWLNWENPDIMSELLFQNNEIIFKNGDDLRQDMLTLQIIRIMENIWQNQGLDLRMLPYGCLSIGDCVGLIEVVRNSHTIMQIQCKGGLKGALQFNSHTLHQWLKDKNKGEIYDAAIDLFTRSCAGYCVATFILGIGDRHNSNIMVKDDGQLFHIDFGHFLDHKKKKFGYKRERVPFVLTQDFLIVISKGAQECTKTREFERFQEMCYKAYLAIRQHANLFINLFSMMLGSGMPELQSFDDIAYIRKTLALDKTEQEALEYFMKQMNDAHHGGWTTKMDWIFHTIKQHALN
PI3kα, sequence (P27986 whole entry partner): as the sequence (P27986 whole entry partner, canonical isoform) above
PI3kδ, sequence (O00329 whole entry): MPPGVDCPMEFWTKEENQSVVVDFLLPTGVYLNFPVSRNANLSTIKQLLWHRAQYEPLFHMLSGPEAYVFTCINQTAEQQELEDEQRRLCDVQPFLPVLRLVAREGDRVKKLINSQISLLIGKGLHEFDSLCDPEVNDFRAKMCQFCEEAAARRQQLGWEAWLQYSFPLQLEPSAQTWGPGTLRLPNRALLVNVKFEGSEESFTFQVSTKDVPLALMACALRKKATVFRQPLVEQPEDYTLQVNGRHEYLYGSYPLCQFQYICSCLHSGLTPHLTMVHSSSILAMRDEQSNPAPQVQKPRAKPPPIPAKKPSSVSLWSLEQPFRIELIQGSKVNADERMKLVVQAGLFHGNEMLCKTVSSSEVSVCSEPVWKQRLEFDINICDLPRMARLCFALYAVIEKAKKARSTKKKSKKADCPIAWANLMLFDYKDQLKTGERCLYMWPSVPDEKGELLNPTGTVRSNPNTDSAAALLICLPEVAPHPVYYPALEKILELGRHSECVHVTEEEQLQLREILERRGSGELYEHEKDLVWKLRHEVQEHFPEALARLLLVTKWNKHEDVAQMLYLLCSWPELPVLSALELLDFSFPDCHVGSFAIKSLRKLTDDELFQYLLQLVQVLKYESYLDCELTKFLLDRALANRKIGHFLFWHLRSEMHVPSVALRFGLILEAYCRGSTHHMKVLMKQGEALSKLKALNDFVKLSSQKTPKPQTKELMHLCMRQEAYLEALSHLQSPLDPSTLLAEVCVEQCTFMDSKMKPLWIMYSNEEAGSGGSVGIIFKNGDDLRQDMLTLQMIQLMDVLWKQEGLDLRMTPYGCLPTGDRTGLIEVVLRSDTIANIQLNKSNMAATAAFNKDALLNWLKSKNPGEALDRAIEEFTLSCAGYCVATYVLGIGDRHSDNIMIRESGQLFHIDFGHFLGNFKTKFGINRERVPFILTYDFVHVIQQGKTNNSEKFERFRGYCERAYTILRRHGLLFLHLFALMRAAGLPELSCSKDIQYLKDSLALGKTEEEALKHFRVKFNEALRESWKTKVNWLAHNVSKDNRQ
PI3kδ, sequence (P27986 whole entry partner): as the sequence (P27986 whole entry partner, canonical isoform) above
PI3kγ, sequence (P48736 whole entry): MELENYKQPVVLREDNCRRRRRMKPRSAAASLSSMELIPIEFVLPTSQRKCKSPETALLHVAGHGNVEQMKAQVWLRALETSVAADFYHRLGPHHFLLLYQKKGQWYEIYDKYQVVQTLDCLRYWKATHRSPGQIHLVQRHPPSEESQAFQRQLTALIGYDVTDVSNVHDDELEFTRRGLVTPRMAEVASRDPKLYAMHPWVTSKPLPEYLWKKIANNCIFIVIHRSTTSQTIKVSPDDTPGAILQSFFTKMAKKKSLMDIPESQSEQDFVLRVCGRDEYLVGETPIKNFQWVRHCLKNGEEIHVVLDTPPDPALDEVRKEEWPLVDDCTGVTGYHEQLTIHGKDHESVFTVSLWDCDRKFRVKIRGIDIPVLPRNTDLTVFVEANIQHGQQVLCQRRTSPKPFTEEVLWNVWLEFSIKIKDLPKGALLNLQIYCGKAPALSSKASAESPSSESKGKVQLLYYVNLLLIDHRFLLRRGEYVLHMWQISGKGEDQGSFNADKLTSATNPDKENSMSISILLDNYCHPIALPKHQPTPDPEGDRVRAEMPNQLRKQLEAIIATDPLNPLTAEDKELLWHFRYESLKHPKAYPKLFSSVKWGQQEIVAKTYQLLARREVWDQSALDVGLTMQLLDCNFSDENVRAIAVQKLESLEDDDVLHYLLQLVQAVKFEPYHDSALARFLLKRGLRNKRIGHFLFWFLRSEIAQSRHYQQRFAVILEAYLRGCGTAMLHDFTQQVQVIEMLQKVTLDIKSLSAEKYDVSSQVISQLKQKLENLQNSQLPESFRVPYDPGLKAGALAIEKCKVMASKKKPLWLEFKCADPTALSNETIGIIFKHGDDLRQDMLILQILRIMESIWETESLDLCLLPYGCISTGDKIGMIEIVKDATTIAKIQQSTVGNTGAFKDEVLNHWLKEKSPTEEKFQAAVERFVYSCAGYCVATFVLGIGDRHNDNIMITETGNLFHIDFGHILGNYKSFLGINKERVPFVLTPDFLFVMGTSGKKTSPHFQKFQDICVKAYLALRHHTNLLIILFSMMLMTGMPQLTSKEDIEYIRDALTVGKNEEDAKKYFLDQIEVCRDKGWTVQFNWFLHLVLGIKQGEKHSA

- inhibition at 1 µM (PI3kβ): 0 to 25%
- inhibition at 0.1 µM (PI3kγ): 25 to 50%
- inhibition at 0.1 µM (PI3kδ): 25 to 50%
- inhibition at 1 µM (PI3kα): 25 to 50%
- melting point: 203 to 205 °C
SMILES: CC(Nc1ncnc2[nH]cnc12)c1oc2cccc(F)c2c(=O)c1-c1ccccc1F (centres unmarked) [Example 131, 2-(1-(9H-purin-6-ylamino)ethyl)-5-fluoro-3-(2-fluorophenyl)-4H-chromen-4-one]
